# Source: ChEMBL document CHEMBL1131710, “N-substituted-3-arylpyrrolidines: potent and selective ligands at serotonin 1A receptor” (Bioorg Med Chem Lett, 1999)
# Experiments:
# Type in all cases: tissue-based
# [1] = target: T1, Adrenergic receptor alpha-2 (Rattus norvegicus, UniProt P22086+P19328+P22909); assay: In vitro binding affinity against Alpha-2 adrenergic receptor of rat cerebral cortex using [3H]RX-821002
# T1 sequence (P22086 whole entry): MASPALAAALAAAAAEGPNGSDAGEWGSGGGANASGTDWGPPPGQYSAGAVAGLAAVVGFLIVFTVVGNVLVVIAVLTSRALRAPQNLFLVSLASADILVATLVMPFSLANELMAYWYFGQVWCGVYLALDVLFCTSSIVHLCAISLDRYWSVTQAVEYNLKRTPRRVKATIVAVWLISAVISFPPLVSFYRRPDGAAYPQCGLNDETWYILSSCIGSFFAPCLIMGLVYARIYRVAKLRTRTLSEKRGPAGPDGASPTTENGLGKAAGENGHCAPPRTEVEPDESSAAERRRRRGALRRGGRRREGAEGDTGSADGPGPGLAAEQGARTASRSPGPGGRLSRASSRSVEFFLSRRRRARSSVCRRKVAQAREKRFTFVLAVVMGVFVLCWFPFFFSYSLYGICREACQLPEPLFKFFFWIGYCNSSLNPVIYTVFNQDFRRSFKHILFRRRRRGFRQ
# T1 sequence (P19328 whole entry): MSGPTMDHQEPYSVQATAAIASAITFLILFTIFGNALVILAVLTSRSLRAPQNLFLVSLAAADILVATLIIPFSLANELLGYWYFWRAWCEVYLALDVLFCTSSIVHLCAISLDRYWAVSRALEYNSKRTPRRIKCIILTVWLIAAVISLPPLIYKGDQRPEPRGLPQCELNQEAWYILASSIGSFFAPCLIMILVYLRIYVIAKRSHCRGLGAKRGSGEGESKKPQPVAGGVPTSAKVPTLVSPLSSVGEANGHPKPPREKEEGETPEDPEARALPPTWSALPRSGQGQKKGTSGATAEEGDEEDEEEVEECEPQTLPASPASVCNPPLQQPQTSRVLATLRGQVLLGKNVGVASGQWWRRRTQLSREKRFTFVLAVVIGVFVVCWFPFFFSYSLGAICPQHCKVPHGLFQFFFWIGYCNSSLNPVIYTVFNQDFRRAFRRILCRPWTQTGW
# T1 sequence (P22909 whole entry): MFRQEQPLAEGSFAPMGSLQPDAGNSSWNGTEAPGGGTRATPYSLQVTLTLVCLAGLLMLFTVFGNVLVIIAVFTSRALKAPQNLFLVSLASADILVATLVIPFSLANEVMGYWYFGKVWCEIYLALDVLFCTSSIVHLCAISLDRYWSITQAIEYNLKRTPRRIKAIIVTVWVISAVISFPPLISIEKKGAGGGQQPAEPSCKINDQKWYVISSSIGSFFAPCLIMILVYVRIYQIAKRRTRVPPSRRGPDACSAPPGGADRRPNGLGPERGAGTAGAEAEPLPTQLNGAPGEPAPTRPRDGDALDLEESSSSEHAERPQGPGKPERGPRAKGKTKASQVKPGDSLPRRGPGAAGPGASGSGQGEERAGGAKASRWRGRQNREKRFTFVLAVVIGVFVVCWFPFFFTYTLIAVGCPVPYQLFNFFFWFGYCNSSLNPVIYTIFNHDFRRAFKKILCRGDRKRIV
# [2] = target: D(1A) dopamine receptor (Rattus norvegicus, UniProt P18901); assay: In vitro binding affinity against Dopamine receptor D1 of rat striatum using [3H]SCH-23390
# Sequence of D(1A) dopamine receptor (P18901 whole entry): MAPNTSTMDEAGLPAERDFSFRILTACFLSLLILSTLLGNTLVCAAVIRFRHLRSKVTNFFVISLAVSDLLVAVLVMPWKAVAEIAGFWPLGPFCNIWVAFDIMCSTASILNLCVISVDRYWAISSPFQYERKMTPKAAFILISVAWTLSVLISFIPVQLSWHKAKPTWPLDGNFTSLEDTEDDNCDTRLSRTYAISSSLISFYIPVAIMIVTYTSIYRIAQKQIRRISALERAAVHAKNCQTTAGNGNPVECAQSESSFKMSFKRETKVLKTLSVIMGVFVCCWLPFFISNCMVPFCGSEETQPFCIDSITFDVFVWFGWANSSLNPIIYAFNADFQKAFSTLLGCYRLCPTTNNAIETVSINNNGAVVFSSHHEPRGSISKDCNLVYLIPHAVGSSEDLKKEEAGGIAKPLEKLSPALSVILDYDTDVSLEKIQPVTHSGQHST
# [3] = target: D(2) dopamine receptor (Rattus norvegicus, UniProt P61169); assay: In vitro binding affinity against Dopamine receptor D2 of rat striatum using [3H]raclopride
# Sequence of D(2) dopamine receptor (P61169 whole entry): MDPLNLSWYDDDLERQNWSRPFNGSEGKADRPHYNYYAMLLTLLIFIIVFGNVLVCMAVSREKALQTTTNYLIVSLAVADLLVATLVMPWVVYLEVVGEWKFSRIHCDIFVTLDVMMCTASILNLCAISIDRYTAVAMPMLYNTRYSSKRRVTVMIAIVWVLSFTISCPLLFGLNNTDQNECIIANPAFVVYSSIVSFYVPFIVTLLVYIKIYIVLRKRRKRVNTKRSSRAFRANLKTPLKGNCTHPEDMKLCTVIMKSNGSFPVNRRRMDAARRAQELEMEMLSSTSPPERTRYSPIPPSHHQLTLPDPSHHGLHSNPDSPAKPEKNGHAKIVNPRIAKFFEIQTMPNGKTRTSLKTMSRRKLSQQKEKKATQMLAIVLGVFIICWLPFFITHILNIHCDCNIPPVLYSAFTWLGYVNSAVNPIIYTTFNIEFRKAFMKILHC
# [4] = target: 5-hydroxytryptamine receptor 2A (Rattus norvegicus, UniProt P14842); assay: In vitro binding affinity against 5-HT2A receptor of rat cerebral cortex using [3H]ketanserin
# Sequence of 5-hydroxytryptamine receptor 2A (P14842 whole entry): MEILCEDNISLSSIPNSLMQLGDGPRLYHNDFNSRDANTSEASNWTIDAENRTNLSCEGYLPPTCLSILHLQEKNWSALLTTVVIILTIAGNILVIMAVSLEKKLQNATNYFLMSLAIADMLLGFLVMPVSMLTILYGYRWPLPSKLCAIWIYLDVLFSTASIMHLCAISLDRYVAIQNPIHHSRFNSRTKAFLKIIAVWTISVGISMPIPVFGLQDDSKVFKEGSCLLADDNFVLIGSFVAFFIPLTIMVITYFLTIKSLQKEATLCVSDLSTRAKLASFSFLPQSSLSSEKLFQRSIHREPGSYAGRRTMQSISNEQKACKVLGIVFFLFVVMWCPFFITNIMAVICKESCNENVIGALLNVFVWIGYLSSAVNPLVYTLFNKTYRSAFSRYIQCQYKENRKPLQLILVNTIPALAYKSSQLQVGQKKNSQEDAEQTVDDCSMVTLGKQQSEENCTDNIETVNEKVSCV
# [5] = target: T2, 5-hydroxytryptamine receptor 1A (Rattus norvegicus, UniProt P19327); assay: In vitro binding affinity against 5-HT1A receptor of rat hippocampus using [3H]8-OH-DPAT
# T2 sequence (P19327 whole entry): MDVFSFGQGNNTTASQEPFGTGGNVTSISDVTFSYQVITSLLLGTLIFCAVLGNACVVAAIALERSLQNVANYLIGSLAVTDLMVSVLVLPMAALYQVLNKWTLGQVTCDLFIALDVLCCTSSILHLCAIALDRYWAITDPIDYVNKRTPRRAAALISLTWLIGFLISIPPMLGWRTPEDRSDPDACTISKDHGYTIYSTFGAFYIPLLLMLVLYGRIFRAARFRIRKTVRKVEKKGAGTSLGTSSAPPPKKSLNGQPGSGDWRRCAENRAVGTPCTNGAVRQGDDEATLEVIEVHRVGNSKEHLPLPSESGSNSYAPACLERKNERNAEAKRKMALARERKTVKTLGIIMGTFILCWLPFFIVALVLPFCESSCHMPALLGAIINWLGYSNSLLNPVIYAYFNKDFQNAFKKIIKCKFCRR
compound,measurement,setting,value
O=C(c1cccc(CN2CCC(c3ccc(Cl)cc3)C2)c1)N1CCCCC1 (stereo not given),Ki,[1],0.044 µM
same,Ki,[2],37.6 µM
same,Ki,[3],0.334 µM
same,Ki,[4],0.046 µM
same,Ki,[5],0.0153 µM
O=C(c1cccc(CN2CCC(c3ccccc3)C2)c1)N1CCCCC1 (stereo not given),Ki,[1],0.024 µM
same,Ki,[2],88.1 µM
same,Ki,[3],0.783 µM
same,Ki,[4],0.32 µM
same,Ki,[5],0.0306 µM
O=C1c2ccccc2CN1CCCCN1CCC(c2ccccc2)C1 (stereo not given),Ki,[1],0.011 µM
same,Ki,[2],1.95 µM
same,Ki,[3],0.077 µM
same,Ki,[4],0.046 µM
same,Ki,[5],0.0115 µM
O=C1c2ccccc2S(=O)(=O)N1CCCCN1CCC(c2ccccc2)C1 (stereo not given),Ki,[1],0.016 µM
same,Ki,[2],12.5 µM
same,Ki,[3],0.195 µM
same,Ki,[4],0.034 µM
same,Ki,[5],0.0027 µM
O=C1c2ccccc2CN1CCCCN1CCC(c2ccc(Cl)cc2)C1 (stereo not given),Ki,[1],0.012 µM
same,Ki,[2],1.62 µM
same,Ki,[3],0.185 µM
same,Ki,[4],0.184 µM
same,Ki,[5],0.0304 µM
O=C1c2ccccc2S(=O)(=O)N1CCCCN1CCC(c2ccc(Cl)cc2)C1 (stereo not given),Ki,[1],0.056 µM
same,Ki,[2],1.57 µM
same,Ki,[3],0.327 µM
same,Ki,[4],0.232 µM
same,Ki,[5],0.0026 µM
O=C1c2ccccc2S(=O)(=O)N1CCCCN1CCC(c2ccc(F)cc2)C1 (stereo not given),Ki,[1],0.334 µM
same,Ki,[2],6.67 µM
same,Ki,[3],0.263 µM
same,Ki,[4],> 0.367 µM
same,Ki,[5],0.0042 µM
